Legend:
Human PBMCs [1] = experiment: Cytokine production in PBMCs: human IFN-α by ELISA; assay type: cell-based; design: key: ″+″ means that there was production of IFNa or IL-6 on PBMC; ″−″means that noproduction of IFNa or IL-6 on PBMC was detected; details: compounds tested at concentration of 10 uM; human PBMCs cultured 20-22 hours; supernatant ELISA
Protocol: (§1) The compound functionality was tested for some of the compounds prepared by stimulation and determination of cytokine production in PBMCs.
(§2) Human PBMCs were prepared from buffy coat obtained from healthy volunteer donor by Ficoll centrifugation and were adjusted to the final cell concentration to 1×10^6 cells/mL.
(§3) For evaluation of compound activities, 1×10^5 PBMCs were plated in a 96-well plate in 100 μl of RPMI 1640 complete medium (cat no. 31800-022, GIBCO by Life Technologies, Grand Island, NY, USA) supplemented with 10% fetal bovine serum, the tested compound was first dissolved in DMSO and further diluted in PBS and RPMI 1640 medium to the final concentration of […] (corresponding to 6.28 μg/mL), then 3-fold serially dilution was made in a 96-well round-bottom plate. 100 μl diluted compound was added to the same volume of 1×10^5 PBMCs plate and cultured for 20-22 hours at 37° C. in a humidified atmosphere of 5% CO2. The supernatant was collected for human IFN-α, IL12(p70) and IL-6 analysis by ELISA assay according to the manufacturer's instructions (Mabtech AB, Sweden). Resiquimod was used as a positive control.

Human PBMCs [2] = experiment: Cytokine production in PBMCs: human IL-6 by ELISA; assay type: cell-based; design: key: ″+″ means that there was production of IFNa or IL-6 on PBMC; ″−″means that noproduction of IFNa or IL-6 on PBMC was detected; details: compounds tested at concentration of 10 uM; human PBMCs cultured 20-22 hours; supernatant ELISA
Protocol: as §1, §2, §3

Structure (SMILES) | Production of IFNa on PBMC (Human PBMCs [1]) | Production of IL−6 on PBMC (Human PBMCs [2])
CCOCc1nc2c(N)nc3cccc(OC4CCOC4)c3c2n1C (centres unmarked) [Compound 27, 2-(ethoxymethyl)-1-methyl-9-((tetrahydrofuran-3-yl)oxy)-1H-imidazo[4,5-c]quinolin-4-amine] | + | +
CCOCc1nc2c(N)nc3cccc(OC4CCNC4)c3c2n1C (centres unmarked) [Compound 28, 2-(ethoxymethyl)-1-methyl-9-(pyrrolidin-3-yloxy)-1H-imidazo[4,5-c]quinolin-4-amine] | + | +
CCOCc1nc2c(N)nc3cccc(OC4CCNCC4)c3c2n1C [Compound 29, 2-(ethoxymethyl)-1-methyl-9-(piperidin-4-yloxy)-1H-imidazo[4,5-c]quinolin-4-amine] | + | +
CC(C)CCn1cc2c(n1)c(N)nc1cccc(O)c12 [Compound 31, 4-amino-2-isopentyl-2H-pyrazolo[3,4-c]quinolin-9-ol] | − | −
CC(C)CCOc1cccc2nc(N)c3nn(CCC(C)C)cc3c12 [Compound 32, 2-isopentyl-9-(isopentyloxy)-2H-pyrazolo[3,4-c]quinolin-4-amine] | − | −
CCCCn1cc2c(n1)c(N)nc1cccc(OCCC(C)C)c12 [Compound 33, 2-butyl-9-(isopentyloxy)-2H-pyrazolo[3,4-c]quinolin-4-amine] | − | +
CCCCCCCCCCCCCCCC(=O)NCCCOc1cccc2nc(N)c3nc(COCC)n(C)c3c12 [Compound 34, N-(3-((4-amino-2-(ethoxymethyl)-1-methyl-1H-imidazo[4,5-c]quinolin-9-yl)oxy)propyl)palmitamide] | + | +
CCCCCCCCCCCCCCCC(=O)NCCCCOc1cccc2nc(N)c3nc(COCC)n(C)c3c12 [Compound 35, N-(4-((4-amino-2-(ethoxymethyl)-1-methyl-1H-imidazo[4,5-c]quinolin-9-yl)oxy)butyl)palmitamide] | + | +
CCOCc1nc2c(N)nc3cccc(OCCCN)c3c2n1C [Compound 36, 9-(3-aminopropoxy)-2-(ethoxymethyl)-1-methyl-1H-imidazo[4,5-c]quinolin-4-amine] | + | +
CCOCc1nc2c(N)nc3cccc(OC(C)C)c3c2n1C [Compound 37, 2-(ethoxymethyl)-9-isopropoxy-1-methyl-1H-imidazo[4,5-c]quinolin-4-amine] | + | +
CCOCc1nc2c(N)nc3cccc(OCC(C)(C)O)c3c2n1C [Compound 38, 1-((4-amino-2-(ethoxymethyl)-1-methyl-1H-imidazo[4,5-c]quinolin-9-yl)oxy)-2-methylpropan-2-ol] | + | +
CCOCc1nc2c(N)nc3cccc4c3c2n1CCO4 [Compound 39, 2-(ethoxymethyl)-3,4-dihydro-5-oxa-1,2a,9-triazanaphtho[2,1,8-cde]azulen-10-amine] | + | +
CCOCc1nc2c(N)nc3cccc4c3c2n1C[C@](C)(O)CO4 [Compound 42, (S)-2-amino-12-(ethoxymethyl)-6-methyl-6,7-dihydro-5H-3,4-(azenometheno)[1,5]oxazocino[4,3,2-de]quinolin-6-ol] | + | +

— US11834448B2, “2-amino-quinoline derivatives” (BIRDIE BIOPHARMACEUTICALS, INC., priority 2017, dated 2023)
